Usually EC50 stands for the concentration at which the effect is half-maximal. Read a low EC50 as greater potency.

From US20130005743A1, “New positive allosteric modulators of nicotinic acetylcholine receptor” (H. Lundbeck A/S, priority 2011, published 2013) come the findings set out here.

In the assay the target is T1, human α7 receptor (Homo sapiens, UniProt P36544).
T1 construct: host or cells: rat GH4C1 cell line
T1 sequence (P36544 23-502): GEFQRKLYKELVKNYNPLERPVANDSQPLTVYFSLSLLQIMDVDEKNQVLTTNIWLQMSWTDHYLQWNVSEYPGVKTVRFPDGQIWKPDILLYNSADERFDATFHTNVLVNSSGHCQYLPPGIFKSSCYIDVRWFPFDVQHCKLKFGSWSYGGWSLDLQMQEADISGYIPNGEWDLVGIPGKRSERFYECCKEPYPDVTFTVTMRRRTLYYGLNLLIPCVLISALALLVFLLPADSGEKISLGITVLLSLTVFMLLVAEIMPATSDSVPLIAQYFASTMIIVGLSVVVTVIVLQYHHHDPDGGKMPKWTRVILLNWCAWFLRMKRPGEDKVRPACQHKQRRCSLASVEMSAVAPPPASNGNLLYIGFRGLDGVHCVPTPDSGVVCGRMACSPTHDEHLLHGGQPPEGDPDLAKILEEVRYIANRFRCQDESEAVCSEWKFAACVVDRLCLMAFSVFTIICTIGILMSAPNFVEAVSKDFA
The experiment in a line: α7 NNR flux assay (FDSS Ca assay, positive allosteric modulation of acetylcholine response). The class given is cell-based. The settings on record: human α7 receptor stably expressed in rat GH4C1 cells; acetylcholine 20 μM; % modulation relative to PNU-120596 set to 100%. How it is done:
The nicotinic acetylcholine receptor α7 is a calcium-permeable ion channel, whose activity can be measured by over expression in mammalian cells or oocytes. In this version of the assay, the human α7 receptor is stably expressed in the rat GH4C1 cell line. The assay was used to identify positive allosteric modulators (PAMs) of the α7 receptor. Activation of the channel was measured by loading cells with the calcium-sensitive fluorescent dye. Calcium-4 (Assay kit from Molecular Devices), and then measuring real-time changes, in fluorescence upon treatment with test compounds.
The cell line ChanClone GH4C1-nAChRalpha7 from Genionics was seeded from frozen stock in 384-well plates in culture media 2-3 days before experiment to form an approximately 80% confluent layer on the day of experiment.
The cell culture were split into “22.5 cm×22.5 cm”-plates with approximately 100×10^3 cells/cm^2. After four days incubation in a humidified incubator at 37° C. and 5% CO2, it had grown to an 80-90% confluent layer, and the cells were harvested.
Two or three days before the experiment the cells were seeded in 384 well plates from Greiner bio-one (781946, CELLCOAT, Poly-D-Lysine, black, μClear).
The cells were seeded in 384 well plates with 30 μL/well (30000 cells/well) while stirring the cell suspension or otherwise preventing the cells from precipitating.
The loading buffer was 5% v/v Calcium-4 Kit and 2.5 mM Probenecid in assay buffer.
Culture media was removed from the cell plates and 20 μL loading buffer was added in each well. The cell plates were placed in trays and incubated 90 minutes in the incubator (37° C.). Thereafter the plates were incubated 30 minutes at room temperature, still protected from light.
The assay buffer was HBSS with 20 mM HEPES, pH 7.4 and 3 mM CaCl2.
[…] 10 mM compound solution in DMSO was diluted in 50 μL assay buffer. The final test concentrations in the cell plates were 20-10-5-2.5-1.25-0.625-0.312-0.156-0.078-0.039 μM. Assay buffer and 3 μM PNU-120596 were used for control. The agonist acetylcholine was added to a final concentration of 20 μM (˜EC100). In the FDSS7000 the Ex480-Em540 was measured with 1 second intervals. The baseline was made of 5 frames before addition of test compounds, and 95 frames more were made before addition of acetylcholine. The measurement stopped 30 frames after the 2nd addition. Raw data for each well were collected as “the maximum fluorescence count” in the interval 100-131 seconds and as “the average fluorescence count” in the interval 96-100 seconds. The positive allosteric modulation in the 2nd addition was the enhancement of agonist response with test compound compared to agonist alone.
Results were calculated as % modulation of test compound compared to the reference PNU-120596 set to 100%.
As to `Cc1cc(C(=O)Nc2c(C)ccnc2C)c2c(C)nn(-c3ccccc3)c2n1` [Compound 2, 3,6-Dimethyl-1-phenyl-1H-pyrazolo[3,4-b]pyridine-4-carboxylic acid (2,4-dimethyl-pyridin-3-yl)-amide], the EC50 is 3.6 µM.

For `Cc1cc(C(=O)Nc2c(C)cncc2C)c2c(C)nn(-c3ccccc3)c2n1` [Compound 3, 3,6-Dimethyl-1-phenyl-1H-pyrazolo[3,4-b]pyridine-4-carboxylic acid (3,5-dimethyl-pyridin-4-yl)-amide], a half-maximal response (EC50) required 4.1 µM.

The compound `COc1ccccc1-n1nc(C)c2c(C(=O)Nc3c(C)ccnc3C)cc(C)nc21` [Compound 4, 1-(2-Methoxy-phenyl)-3,6-dimethyl-1H-pyrazolo[3,4-b]pyridine-4-carboxylic acid (2,4-dimethyl-pyridin-3-yl)-amide] gave an EC50 of 7.1 µM.

On to `COc1ccc(-n2nc(C)c3c(C(=O)Nc4cccnc4C)cc(C)nc32)cc1` [Compound 5, 1-(4-Methoxy-phenyl)-3,6-dimethyl-1H-pyrazolo[3,4-b]pyridine-4-carboxylic acid (2-methyl-pyridin-3-yl)-amide], for which a half-maximal response (EC50) required 3.3 µM.

`Cc1ccc(-n2nc(C)c3c(C(=O)Nc4c(C)ccnc4C)cc(C)nc32)cc1` [Compound 6, 3,6-Dimethyl-1-p-tolyl-1H-pyrazolo[3,4-b]pyridine-4-carboxylic acid (2,4-dimethyl-pyridin-3-yl)-amide] returned an EC50 of 2.5 µM.

On to `COc1ccc(-n2nc(C)c3c(C(=O)Nc4c(C)ccnc4OC)cc(C)nc32)cc1` [Compound 7, 1-(4-Methoxy-phenyl)-3,6-dimethyl-1H-pyrazolo[3,4-b]pyridine-4-carboxylic acid (2-methoxy-4-methyl-pyridin-3-yl)-amide], for which the EC50 worked out at 2.2 µM.

On to `COc1ccc(-n2nc(C)c3c(C(=O)Nc4cnccc4C)cc(C)nc32)cc1` [Compound 8, 1-(4-Methoxy-phenyl)-3,6-dimethyl-1H-pyrazolo[3,4-b]pyridine-4-carboxylic acid (4-methyl-pyridin-3-yl)-amide], for which the EC50 came out at 5.1 µM.

The compound `COc1cccc(-n2nc(C)c3c(C(=O)Nc4c(C)ccnc4C)cc(C)nc32)c1` [Compound 9, 1-(3-Methoxy-phenyl)-3,6-dimethyl-1H-pyrazolo[3,4-b]pyridine-4-carboxylic acid (2,4-dimethyl-pyridin-3-yl)-amide] showed an EC50 of 4 µM.

`Cc1ccc(-n2nc(C)c3c(C(=O)Nc4c(C)ccnc4C)cc(C)nc32)cn1` [Compound 10, 3,6-Dimethyl-1-(6-methyl-pyridin-3-yl)-1H-pyrazolo[3,4-b]pyridine-4-carboxylic acid (2,4-dimethyl-pyridin-3-yl)-amide] had a concentration giving a half-maximal response (EC50) of 7.2 µM.

The compound `COc1ccc(-n2ncc3c(C(=O)Nc4c(C)ccnc4C)cc(C)nc32)cc1` [Compound 11, 1-(4-Methoxy-phenyl)-6-methyl-1H-pyrazolo[3,4-b]pyridine-4-carboxylic acid (2,4-dimethyl-pyridin-3-yl)-amide] yielded an EC50 of 2.8 µM.

The compound `COc1ccc(-n2nc(C)c3c(C(=O)Nc4c(C)ncnc4C)cc(C)nc32)cc1` [Compound 12, 1-(4-Methoxy-phenyl)-3,6-dimethyl-1H-pyrazolo[3,4-b]pyridine-4-carboxylic acid (4,6-dimethyl-pyrimidin-5-yl)-amide] came in with an EC50 of 4.9 µM.

As for `Cc1cc(C(=O)Nc2c(C)ccnc2C)c2c(C)nn(-c3ccc(F)cc3)c2n1` [Compound 13, 1-(4-Fluoro-phenyl)-3,6-dimethyl-1H-pyrazolo[3,4-b]pyridine-4-carboxylic acid (2,4-dimethyl-pyridin-3-yl)-amide], the EC50 was 7.8 µM.

As for `Cc1cc(C(=O)Nc2c(C)ccnc2C)c2c(C)nn(-c3ccc(C#N)cc3)c2n1` [Compound 14, 1-(4-Cyano-phenyl)-3,6-dimethyl-1H-pyrazolo[3,4-b]pyridine-4-carboxylic acid (2,4-dimethyl-pyridin-3-yl)-amide], the EC50 came to 6.3 µM.

`COc1ccc(-n2nc(C)c3c(C(=O)Nc4c(C)ccnc4C)ccnc32)cc1` [Compound 15, 1-(4-Methoxy-phenyl)-3-methyl-1H-pyrazolo[3,4-b]pyridine-4-carboxylic acid (2,4-dimethyl-pyridin-3-yl)-amide]: the EC50 is 6 µM.

On to `COc1ccc(-n2nc(C)c3c(C(=O)Nc4c(C)ccnc4C)cc(C)nc32)cn1` [Compound 16, 1-(6-Methoxy-pyridin-3-yl)-3,6-dimethyl-1H-pyrazolo[3,4-b]pyridine-4-carboxylic acid (2,4-dimethyl-pyridin-3-yl)-amide], for which a half-maximal response (EC50) required 5.5 µM.

Compound `Cc1cc(C(=O)Nc2c(C)ccnc2C)c2c(C)nn(-c3ccc(OC(F)(F)F)cc3)c2n1` [Compound 17, 3,6-Dimethyl-1-(4-trifluoromethoxy-phenyl)-1H-pyrazolo[3,4-b]pyridine-4-carboxylic acid (2,4-dimethyl-pyridin-3-yl)-amide] had an EC50 of 11 µM.

`COc1ccc(-n2nc(C)c3c(C(=O)Nc4c(C)cc(C)nc4C)cc(C)nc32)cc1` [Compound 18, 1-(4-Methoxy-phenyl)-3,6-dimethyl-1H-pyrazolo[3,4-b]pyridine-4-carboxylic acid (2,4,6-trimethyl-pyridin-3-yl)-amide] returned a half-maximal effective concentration (EC50) of 6.5 µM.

Take `Cc1cc(C(=O)Nc2c(C)ccnc2C)c2c(C)nn(-c3ccc(OC(F)F)cc3)c2n1` [Compound 19, 1-(4-Difluoromethoxy-phenyl)-3,6-dimethyl-1H-pyrazolo[3,4-b]pyridine-4-carboxylic acid (2,4-dimethyl-pyridin-3-yl)-amide]: the EC50 was 3.3 µM.

Consider `COc1ccc(-n2nc(C)c3c(C(=O)Nc4cncnc4C)cc(C)nc32)cc1` [Compound 20, 1-(4-Methoxy-phenyl)-3,6-dimethyl-1H-pyrazolo[3,4-b]pyridine-4-carboxylic acid (4-methyl-pyrimidin-5-yl)-amide], for which it took 4.6 µM to reach a half-maximal effect (EC50).

On to `Cc1cc(C(=O)Nc2c(C)ccnc2C)c2c(C)nn(-c3ccc(N(C)C)cc3)c2n1` [Compound 23, 1-(4-Dimethylamino-phenyl)-3,6-dimethyl-1H-pyrazolo[3,4-b]pyridine-4-carboxylic acid (2,4-dimethyl-pyridin-3-yl)-amide], for which the EC50 stood at 3.6 µM.

Regarding `Cc1cc(C(=O)Nc2c(C)ccnc2C)c2c(C)nn(-c3ccsc3)c2n1` [Compound 25, 3,6-Dimethyl-1-thiophen-3-yl-1H-pyrazolo[3,4-b]pyridine-4-carboxylic acid (2,4-dimethyl-pyridin-3-yl)-amide], a half-maximal effect (EC50) was put at 7.2 µM.

`Cc1cc(C(=O)Nc2c(C)ccnc2C)c2c(C)nn(-c3cncnc3)c2n1` [Compound 26, 3,6-Dimethyl-1-pyrimidin-5-yl-1H-pyrazolo[3,4-b]pyridine-4-carboxylic acid (2,4-dimethyl-pyridin-3-yl)-amide]: the midpoint of the response, the EC50, lay at 11 µM.

Compound `COc1ccnc(C)c1NC(=O)c1cc(C)nc2c1c(C)nn2-c1ccccc1` [Compound 28, 3,6-Dimethyl-1-phenyl-1H-pyrazolo[3,4-b]pyridine-4-carboxylic acid (4-methoxy-2-methyl-pyridin-3-yl)-amide] gave an EC50 of 6.5 µM.

For `COc1ccc(-n2nc(C)c3c(C(=O)Nc4cnccc4N(C)C)cc(C)nc32)cc1` [Compound 30, 1-(4-Methoxy-phenyl)-3,6-dimethyl-1H-pyrazolo[3,4-b]pyridine-4-carboxylic acid (4-dimethylamino-pyridin-3-yl)-amide], the EC50 was 2.7 µM.

For the compound `COc1ccc(-n2nc(C)c3c(C(=O)Nc4cnc(C)cc4C)cc(C)nc32)cc1` [Compound 33, 1-(4-Methoxy-phenyl)-3,6-dimethyl-1H-pyrazolo[3,4-b]pyridine-4-carboxylic acid (4,6-dimethyl-pyridin-3-yl)-amide], the EC50 came to 8.9 µM.

As for `Cc1cc(C(=O)Nc2c(C)ccnc2C)c2c(C)nn(-c3ccc(O)cc3)c2n1` [Compound 37, 1-(4-Hydroxy-phenyl)-3,6-dimethyl-1H-pyrazolo[3,4-b]pyridine-4-carboxylic acid (2,4-dimethyl-pyridin-3-yl)-amide], the EC50 worked out at 9.5 µM.
